Our source for the viability values is publication PMC12040169 (PLOS Biology, 2025).

Each structure is given as a SMILES string.

This data set in a line: in vitro. Particulars: human, hela cells, % viability.
In general, viability refers to a read-out of living cells in per cent, often relative to untreated cells. Consider `CN(C)C(=O)CCNC(=O)c1ccc2c(c1)nc(N1CC[C@H](O)C1)n2C` [CBK306671], for which the viability at 28.5 h, 10 µM was determined as 92.4%.
To `COc1ccnc(Cn2ncc(N3CCCC3)cc2=O)c1OC` [CBK306672] belongs 82.7%; to `Cc1nc(N(C)C)ncc1C(=O)NCCSc1nnnn1C` [CBK306673], 93.1%.
To `COCC1(C(=O)N2CC(=O)N(c3ccc(Cl)cc3)CC2C)CCC1` (centres unmarked) [CBK306674] belongs 89.2%.
Take `CCCn1ccnc1-c1cn(CCc2cc(O)nc(C)n2)nn1` [CBK306675]: the viability at 28.5 h, 10 µM came to 114%.
To `Cc1c(Cl)c(C(=O)N[C@@H]2CCN(Cc3ccccn3)C[C@H]2O)nn1C` [CBK306676] belongs 96%; to `Cc1noc(C)c1C(=O)N(C)Cc1cc(-c2ccncc2)no1` [CBK306677], 102%; to `CCc1cc(C(=O)NC(CCn2ccnc2)c2ccccc2)cc(=O)[nH]1` (centres unmarked) [CBK306679], 114%.
Take `CCN(Cc1cn2ccc(C)cc2n1)CC1CCOCC1` [CBK306680]: the viability at 28.5 h, 10 µM amounted to 89.7%.
To `CC(=O)c1[nH]c(C)c(C(=O)N(C)Cc2cc(-c3ccncc3)no2)c1C` [CBK306681] belongs 97%; to `CCCCn1nc(C2CC2)nc1-c1cnn2cc(C)cnc12` [CBK306683], 89.6%; to `Cc1ccccc1-c1noc(C(C)NC(=O)C2(Cn3ccnc3)CC2)n1` (centres unmarked) [CBK306684], 99.7%.
On to `Cc1nc2cc(OCc3nc(C(=O)N(C)CCN(C)C)co3)ccc2s1` [CBK306685], for which the viability at 28.5 h, 10 µM worked out at 106%.
For the compound `COc1cncc(C(NC(=O)c2ccn3nnnc3c2)[C@H]2C[C@@H](O)C2)c1` (some centres unmarked) [CBK306686], the viability at 28.5 h, 10 µM is 96.2%.
To `NC(=O)c1c(F)cccc1-c1cc(NCCO)nc2[nH]ccc12` [CBK306689] belongs 112%.
Regarding `CCCOCCN1CCN(C(=O)c2nn3cc(C)cnc3c2Cl)CC1` [CBK306690], the viability at 28.5 h, 10 µM was 95.6%.
For the compound `CCCn1ccnc1CN1CCC2(CC1)CC(C(=O)O)N(C(C)=O)C2` (centres unmarked) [CBK306691], the viability at 28.5 h, 10 µM came out at 92.9%.
For `Cc1ccc(OCC(=O)NCC2CCN(c3cnn(C)c(=O)c3)C2)cc1` (centres unmarked) [CBK306693] the value was 83.6%; for `CCCS(=O)(=O)N1CCC2(CCCN(Cc3cccc(F)c3F)C2=O)C1` (centres unmarked) [CBK306694], 90.8%.
To `CCOC(=O)c1cn(CC2(CO)CCC2)cc(Oc2ccccc2)c1=O` [CBK306698] belongs 97.2%; to `CCn1cc(C(=O)N2CCC(Oc3ccccc3C)(C(=O)O)CC2)cn1` [CBK306699], 118%.
For `COCCCn1cnnc1C(C)NC(=O)N(C)Cc1nccs1` (centres unmarked) [CBK306702] the value was 111%.
On to `COc1ccc2[nH]nc(CN3CCCC(c4cc(O)nc(C)n4)C3)c2c1` (centres unmarked) [CBK306703], for which the viability at 28.5 h, 10 µM worked out at 87.6%.
To `Cc1cc(C)c(C(=O)NC2CCN(c3ncccc3C#N)CC2)c(=O)[nH]1` [CBK306709] belongs 110%; to `CN(C)C(=O)c1cc2cc(NC(=O)CC3COCCN3)ccc2s1` (centres unmarked) [CBK306710], 105%.
For `COc1cc(C)c(-c2nc(C)nc(C)c2C)c(C)c1` [CBK306711] the value was 90.5%; for `Cc1nc(O)cc(CCn2cc(-c3cncnc3)nn2)n1` [CBK306712], 96.2%; for `Cc1cc(N2CCCC(COc3ccccc3F)C2)nc(N)n1` (centres unmarked) [CBK306714], 74.4%.
To `Cc1cc2cccc(NC(=O)NCc3cncn3CC(C)C)c2o1` [CBK306715] belongs 101%.
Turning to `CCn1ncnc1CN1CCN(Cc2ccccc2CO)CC1` [CBK306717], the viability at 28.5 h, 10 µM is 88.1%.
For `CCn1ncc(CN(C)C(=O)CCN2CCCCCC2=O)c1C` [CBK306718] the value was 97.2%; for `Cc1cc(C)n(CCNC(=O)N2CCC(Oc3cccnc3)CC2)n1` [CBK306719], 109%.
